This is an account of results in patent US20080300235A1, “FXR Agonists for Reducing LOX-1 Expression” (Wyeth, priority 2007, published 2008).

Experiment [1] has as its system LOX-1. Description: Hepatic LOX-1 gene expression by real-time PCR in FXR KO or wildtype mice. In kind it is in vivo, mouse. Particulars: male FXR KO or wildtype mice, chow diet with 0.5% chenodeoxycholic acid (CA), 30 mpk orally daily 7 days, FIG. 6. As to the method:
(§1) Male FXR deficient (FXR KO) or wildtype mice on a chow diet supplemented with 0.5% chenodeoxycholic acid (CA) were treated orally daily with 30 mpk of Compound A for 7 days, and hepatic gene expression of LOX-1 and VCAM-1 was determined by real-time PCR.

The subject of experiment [2] is LOX-1. Description: LOX-1 expression in liver and kidney of diabetic KKAy mice. In kind it is in vivo, mouse. As to the method: To determine whether FXR agonists could block LOX-1 gene expression under other settings, the regulation of LOX-1 by FXR was studied in the diabetic mouse strain, KKAy. […] The renal regulation of LOX-1 was also determined since FXR is also expressed in the kidney.

A further experiment relates to CD36. In words: Expression of oxLDL hepatic scavenger receptor CD36 (FIG. 3). In kind it is in vivo, mouse. The note with it: specificity control. The source says:
(§2) Since LOX-1 is regulated by oxLDL, LOX-1 mRNA expression was monitored in liver from LDLR−/− (LDLRKO) mice fed a western diet for 7 days.
Importantly, the regulation of LOX-1 by FXR was specific, since expression of another oxLDL hepatic scavenger receptor, CD36, was not affected by compound A (FIG. 3).

In experiment [3] the test system is VCAM-1. Description: Expression of LOX-1 target gene VCAM-1 (FIG. 2). In kind it is in vivo, mouse.
For experiment [4], the system named is LOX-1. In words: Hepatic LOX-1 mRNA expression in LDLR-/- mice fed a western diet. The format is in vivo, mouse. The note with it: liver, LDLR-/- (LDLRKO) mice, western diet 7 days, increasing concentrations of compound, FIG. 1.
Excerpt: as §2

Experiment [5] concerns VCAM-1. In words: Hepatic VCAM-1 gene expression by real-time PCR in FXR KO or wildtype mice. In kind it is in vivo, mouse. Particulars: male FXR KO or wildtype mice, chow diet with 0.5% chenodeoxycholic acid (CA), 30 mpk orally daily 7 days, FIG. 6. As to the method:
as §1

A further experiment concerns soluble LOX-1 (sLOX-1). In words: Serum soluble LOX-1 (sLOX-1) by ELISA based assay in mouse strains. The format is in vivo. The note with it: FIG. 5B. The source says:
Moreover, the expression of soluble LOX-1 (sLOX-1) in the serum was also monitored using an ELISA based assay after Compound A treatment. […] (FIG. 5B).
(In general: In an ELISA, binding on a coated surface is turned into a signal by an enzyme label.)

Turning to `CC(C)OC(=O)C1=CN(C(=O)c2ccc(F)c(F)c2)CC(C)(C)c2c1[nH]c1ccccc21` [Compound A, isopropyl 3-(3,4-difluorobenzoyl)-1,1-dimethyl-1,2,3,6-tetrahydroazepino[4,5-b]indole-5-carboxylate], the “inhibition of hepatic LOX-1 gene expression, FXR KO vs wildtype” value with LOX-1 [1] was “dependent upon FXR”. Besides, the “hepatic LOX-1 expression” value with LOX-1 [2] (chow diet, 7 days treatment, FIG. 4A) is “significant repression”. Moreover, the “renal LOX-1 expression” value in the experiment with LOX-1 [2] (kidney, FIG. 4B) was “significantly inhibited”. In addition, in the experiment on CD36, the CD36 expression result is reported as “not affected”. In the experiment with VCAM-1 [3], the “VCAM-1 (LOX-1 target gene) expression” value was “significantly inhibited”. In addition, in the experiment with LOX-1 [4], the “LOX-1 mRNA induction by the western diet” value is on record as “dose dependently inhibited”. The “inhibition of hepatic VCAM-1 gene expression, FXR KO vs wildtype” value in the experiment with VCAM-1 [5] is on record as “dependent upon FXR”. Also, in the experiment on soluble LOX-1 (sLOX-1) (FXR KO mouse strain), the “sLOX-1 reduction in FXR KO mouse strain” value is listed as “dependent upon FXR”. For the same molecule, the “serum sLOX-1” value in the experiment on soluble LOX-1 (sLOX-1) (various mouse strains, high fat diet, 30 mpk orally daily for 7 days) is on record as “significantly reduced”.
